{"source": "patent US20240190944A1", "about": "“MODIFIED CELLS FOR THE PRODUCTION OF A RECOMBINANT PRODUCT OF INTEREST” (Genentech, Inc., priority 2021, published 2024)", "format_in_all_cases": "cell-based, Chinese Hamster", "key": {"[1]": {"test_system": "empty host CHO-K1 cells", "test": "Growth of empty host CHO-K1 cells in seed train media with PDGFRa inhibitor and/or insulin", "text": "(§1) FIGS. 3A-3D. PDGFRa signaling is important for cell growth, e.g., CHO cell growth, and growth factor signaling is intact after PDGFRa inhibition. FIG. 3A is a schematic of PDGFRa and insulin receptor (IR) signaling upstream of protein synthesis, cell cycle progression and cell proliferation. Bolder arrows indicate stronger activation by respective receptors. FIG. 3B depicts empty CHO-K1 host cells VCC and % viability after 4 days in the presence or absence of PDGFRa inhibitor and/or insulin in the seed train media. FIG. 3C depicts western blot analysis of empty host CHO-K1 cells (of FIG. 3B) after 4 days in the presence or absence of PDGFRa inhibitor and/or insulin in the seed train media. FIG. 3D depicts Day 12 relative IVCC, % viability, relative titer and relative Qp of mAb2-expressing CHO-K 1 cells in the presence of PDGFRa inhibitor and/or insulin during production.\nFIGS. 4A-4D. FIG. 4A depicts empty host CHO-K1 cells viable cell count (VCC) and % viability after 4 days in increasing PDGFRa inhibitor concentrations in the seed train media. FIG. 4B depicts western blot analysis of empty host CHO-K1 cells after 4 days in increasing PDGFRa inhibitor concentrations in the seed train media. FIG. 4C depicts western blot analysis mAb2-expressing CHO-K 1 cells in production in the presence or absence of PERK inhibitor at 10 μM concentration. […]"}, "[2]": {"test_system": "mAb2-expressing CHO-K1 cells", "test": "Fed-batch production of mAb2-expressing CHO cell line with PDGFRa inhibitor and/or insulin", "text": "as §1\nFed-batch production cultures were performed with proprietary chemically defined medium using different vessels (tube-spin and AMBR15) along with bolus feeds on Days 3, 7 and 10 as previously mentioned (Hsu, Aulakh, Traul, & Yuk, 2012). […] Titers were determined using Protein-A affinity chromatography with UV detection. Percent viability and viable cell count were determined using a Vi-Cell XR instrument (Beckman Coulter Item #383721). […]"}, "[3]": {"test_system": "PDGFRa", "test": "Chemical UPR induction in CHO cultures, PDGFRa western blot and qPCR", "conditions": "mAb1-expressing CHO DG44 and CHO-K1 seed train cultures; optimal pH", "text": "FIGS. 1A-1G. […] FIG. 1C depicts western blot analysis of two mAb1-expressing host cell lines, CHO DG44 and CHO-K1, treated with chemical UPR inducers: tunicamycin and DTT. FIG. 1D depicts qPCR analysis of PDGFRa mRNA levels in both host cell lines of FIG. 1C treated with tunicamycin and DTT. FIG. 1E depicts western blot analysis of mAb1-expressing CHO-K1 cells treated with tunicamycin to activate the UPR in the presence of UPR pathway-specific inhibitors. […] FIG. 1F depicts qPCR analysis of PDGFRa mRNA levels in CHO-K1 cells treated with tunicamycin in the presence of UPR pathway-specific inhibitors. FIG. 1G depicts western blot analysis of WT and PERK KO empty host CHO-K1 (Clone 9) cell lines treated with tunicamycin and PERK inhibitor.\nFIGS. 2A-2E. FIG. 2A depicts western blot analysis of mAb1-expressing CHO-K1 cells treated with thapsigargin to activate the UPR in the presence of different UPR pathway-specific inhibitors. […]\nAn interesting phenomenon was previously described where activation of UPR in seed train culture, triggered by lower pH conditions in a particular CHO cell line, negatively affected culture growth in production media at target pH (Tung, et al., 2018). When exposed to low pH conditions, high intracellular BiP levels were detected in this cell line that correlated to low growth profiles during production and poor bioprocess outcomes (Tung, et al., 2018). […]"}}}
{"compound": "COc1cc2ncc(-c3ccccc3)nc2cc1OC", "note": "[PDGFRa inhibitor, AG-1296]", "values": [{"measurement": "reduction of cell growth", "setting": "[1]; 20 μM, 4 days", "value": "approximately 50%"}, {"measurement": "cell growth and cell viability in fed-batch production", "setting": "[2]; PDGFRa inhibition on Day 3", "value": "significantly decreased cell growth, without affecting cell viability"}]}
{"compound": "Tunicamycin", "values": [{"measurement": "fully functional PDGFRa levels (protein and mRNA)", "setting": "[3]", "value": "reduced at both the protein and mRNA levels"}]}
{"compound": "insulin", "values": [{"measurement": "cellular growth of cultures treated with the PDGFRa inhibitor after addition of insulin", "setting": "[1]", "value": "partially rescued cellular growth"}, {"measurement": "cell growth inhibition in production culture after addition of insulin", "setting": "[2]; insulin on Day 3, PDGFRa inhibited", "value": "partially rescued the observed cell growth inhibition"}]}
